Measurements from PubChem BioAssay AID1919001 (Molecular Pharmacology Branch, DTP, NCI, 2023).

Test system: 699152-130-R-J1-PDC complex spheroid growth
Experiment: Anticancer human tumor 699152-130-R-J1-PDC patient-derived pancreatic carcinoma cell line growth inhibition [AhR]
Details: for IC50: curve of first compound; for viability, T/C: stronger effect = lower value
In short: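 Complex tumor spheroids co-cultured with HUVEC and human MSC stroma; AhR antagonists tested in combination with standard-of-care and investigational agents. Top concentration at or near clinical Cmax (else 10 microM), half-log dilutions; growth expressed as percent test/control.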
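Note: compound exposure lasted 7 days after spheroids had grown for 3 days.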

Structure (SMILES): COc1cccc2c1C(=O)c1c(O)c3c(c(O)c1C2=O)CC(O)(C(=O)CO)CC3OC1CC(N)C(O)C(C)O1 (stereo not given) + Cc1cncc(-c2nc(NCCc3c[nH]c4ccccc34)c3ncn(C(C)C)c3n2)c1
- IC50 (second compound 0.1 µM): 349 nM
- IC50 (second compound 0.316 µM): 342 nM
- IC50 (second compound 1 µM): 356 nM
- IC50 (second compound 3.16 µM): 117 nM
- IC50 (second compound 10 µM): < 31.6 nM
- viability, T/C (second compound 0.1 µM, first compound 0.0316 µM): 67.3%
- viability, T/C (second compound 0.1 µM, first compound 0.1 µM): 64.1%
- viability, T/C (second compound 0.1 µM, first compound 0.316 µM): 51.4%
- viability, T/C (second compound 0.1 µM, first compound 1 µM): 25.4%
- viability, T/C (second compound 0.1 µM, first compound 3.16 µM): 2.77%
- viability, T/C (second compound 0.1 µM, first compound 10 µM): 7.37%
- viability, T/C (second compound 0.316 µM, first compound 0.0316 µM): 62.9%
- viability, T/C (second compound 0.316 µM, first compound 0.1 µM): 58.7%
- viability, T/C (second compound 0.316 µM, first compound 0.316 µM): 51.6%
- viability, T/C (second compound 0.316 µM, first compound 1 µM): 22.9%
- viability, T/C (second compound 0.316 µM, first compound 3.16 µM): 2.99%
- viability, T/C (second compound 0.316 µM, first compound 10 µM): 7.49%
- viability, T/C (second compound 1 µM, first compound 0.0316 µM): 70.8%
- viability, T/C (second compound 1 µM, first compound 0.1 µM): 71.5%
- viability, T/C (second compound 1 µM, first compound 0.316 µM): 52.5%
- viability, T/C (second compound 1 µM, first compound 1 µM): 20.9%
- viability, T/C (second compound 1 µM, first compound 3.16 µM): 3.69%
- viability, T/C (second compound 1 µM, first compound 10 µM): 6.86%
- viability, T/C (second compound 3.16 µM, first compound 0.0316 µM): 51.5%
- viability, T/C (second compound 3.16 µM, first compound 0.1 µM): 53.3%
- viability, T/C (second compound 3.16 µM, first compound 0.316 µM): 34.7%
- viability, T/C (second compound 3.16 µM, first compound 1 µM): 5.89%
- viability, T/C (second compound 3.16 µM, first compound 3.16 µM): 4.86%
- viability, T/C (second compound 3.16 µM, first compound 10 µM): 7.43%
- viability, T/C (second compound 10 µM, first compound 0.0316 µM): 14.6%
- viability, T/C (second compound 10 µM, first compound 0.1 µM): 16.3%
- viability, T/C (second compound 10 µM, first compound 0.316 µM): 14.2%
- viability, T/C (second compound 10 µM, first compound 1 µM): 1.29%
- viability, T/C (second compound 10 µM, first compound 3.16 µM): 5.06%
- viability, T/C (second compound 10 µM, first compound 10 µM): 5.36%

Structure (SMILES): O=C(C=Cn1cnc(-c2cc(C(F)(F)F)cc(C(F)(F)F)c2)n1)NNc1cnccn1 + CC(CO)NC(=O)c1cc(-c2ccc(Cl)cc2)nn(-c2cnn(C)c2)c1=O
- IC50 (second compound 0.1 µM): > 3000 nM
- IC50 (second compound 0.316 µM): > 3000 nM
- IC50 (second compound 1 µM): > 3000 nM
- IC50 (second compound 3.16 µM): > 3000 nM
- IC50 (second compound 10 µM): > 3000 nM
- viability, T/C (second compound 0.1 µM, first compound 0.00949 µM): 87.8%
- viability, T/C (second compound 0.1 µM, first compound 0.03 µM): 98.4%
- viability, T/C (second compound 0.1 µM, first compound 0.0949 µM): 82.1%
- viability, T/C (second compound 0.1 µM, first compound 0.3 µM): 74.3%
- viability, T/C (second compound 0.1 µM, first compound 0.949 µM): 82.5%
- viability, T/C (second compound 0.1 µM, first compound 3 µM): 83.2%
- viability, T/C (second compound 0.316 µM, first compound 0.00949 µM): 90.2%
- viability, T/C (second compound 0.316 µM, first compound 0.03 µM): 82.5%
- viability, T/C (second compound 0.316 µM, first compound 0.0949 µM): 76.7%
- viability, T/C (second compound 0.316 µM, first compound 0.3 µM): 87.3%
- viability, T/C (second compound 0.316 µM, first compound 0.949 µM): 87.5%
- viability, T/C (second compound 0.316 µM, first compound 3 µM): 70.5%
- viability, T/C (second compound 1 µM, first compound 0.00949 µM): 88.8%
- viability, T/C (second compound 1 µM, first compound 0.03 µM): 83.9%
- viability, T/C (second compound 1 µM, first compound 0.0949 µM): 75.5%
- viability, T/C (second compound 1 µM, first compound 0.3 µM): 74%
- viability, T/C (second compound 1 µM, first compound 0.949 µM): 82.6%
- viability, T/C (second compound 1 µM, first compound 3 µM): 79%
- viability, T/C (second compound 3.16 µM, first compound 0.00949 µM): 92.1%
- viability, T/C (second compound 3.16 µM, first compound 0.03 µM): 88%
- viability, T/C (second compound 3.16 µM, first compound 0.0949 µM): 87%
- viability, T/C (second compound 3.16 µM, first compound 0.3 µM): 71.8%
- viability, T/C (second compound 3.16 µM, first compound 0.949 µM): 71.2%
- viability, T/C (second compound 3.16 µM, first compound 3 µM): 75.4%
- viability, T/C (second compound 10 µM, first compound 0.00949 µM): 99%
- viability, T/C (second compound 10 µM, first compound 0.03 µM): 82.1%
- viability, T/C (second compound 10 µM, first compound 0.0949 µM): 68.7%
- viability, T/C (second compound 10 µM, first compound 0.3 µM): 72.4%
- viability, T/C (second compound 10 µM, first compound 0.949 µM): 82.3%
- viability, T/C (second compound 10 µM, first compound 3 µM): 73.4%
